In brackets after ≈: the same amount, converted by molar mass. Entries after “also recorded” stand apart in the source; their conditions may differ. Read-outs that look alike come from different tables or passages of the source.
Experiments:
Mtb H37Rv (ATCC 27294) = experiment: Microplate Alamar Blue Assay (MABA), in vitro M. tuberculosis growth inhibition; format: cell-based, Mycobacterium tuberculosis; settings: for meaningful activity against Mtb: at 64 μg/mL
VERO cells (ATCC CCL-81) = experiment: Cytotoxicity against VERO cells; format: cell-based
[1] = patients on TB therapy; cited from earlier work
[2] = 2 μg/mL, Mtb H37Rv, MABA, mean of three experiments
[3] = 4 μg/mL, Mtb H37Rv, MABA, mean of three experiments
[4] = 8 μg/mL, Mtb H37Rv, MABA, mean of three experiments
[5] = 16 μg/mL, Mtb H37Rv, MABA, mean of three experiments
[6] = 32 μg/mL, Mtb H37Rv, MABA, mean of three experiments
[7] = 64 μg/mL, Mtb H37Rv, MABA, mean of three experiments
[8] = 128 μg/mL, Mtb H37Rv, MABA, mean of three experiments
[9] = lowest drug concentration that effected an inhibition of ≧90% relative to untreated cultures, Mtb H37Rv

Structure (SMILES)	% Inhibition (Mtb H37Rv (ATCC 27294); [2]) [%]	% Inhibition (Mtb H37Rv (ATCC 27294); [3]) [%]	% Inhibition (Mtb H37Rv (ATCC 27294); [4]) [%]	% Inhibition (Mtb H37Rv (ATCC 27294); [5]) [%]	% Inhibition (Mtb H37Rv (ATCC 27294); [6]) [%]	% Inhibition (Mtb H37Rv (ATCC 27294); [7]) [%]	% Inhibition (Mtb H37Rv (ATCC 27294); [8]) [%]	MIC (Mtb H37Rv (ATCC 27294); [9]) [µg/mL]	Cyto-toxicity IC50 (VERO cells (ATCC CCL-81))	meaningful activity against Mtb (Mtb H37Rv (ATCC 27294))	Adverse reactions, Infrequent (≧1 per 1,000 patients and <1 per 100 patients) [1]	further results
CC(C)C(C)C1(C)CC1C(C)C1CCC2C3C(C=O)=C4CC(O)CCC4(C)C3CCC12C (centres unmarked) [Compound 9]	17	33	81	96	98	99	99	12.7 (≈ 28.8 µM)	–	–	–	–
CCC(CCC(C)C1CCC2C3C(C=O)=C4CC(O)CCC4(C)C3CCC12C)C(C)C (centres unmarked) [Compound 5]	29	97	99	98	99	99	99	3.8 (≈ 8.86 µM)	26.6 µg/mL	–	–	–
CC(C)CCC[C@@H](C)[C@H]1CC[C@H]2[C@@H]3CC=C4C[C@@H](O)CC[C@]4(C)[C@H]3CC[C@]12C [Compound 6, cholesterol]	–	–	–	–	–	–	–	–	–	none	–	inhibition at 16 µg/mL (Mtb H37Rv (ATCC 27294); Mycobacterium tuberculosis, 16 μg/mL, Mtb H37Rv, MABA, mean of three experiments): 33%; inhibition at 32 µg/mL (Mtb H37Rv (ATCC 27294); Mycobacterium tuberculosis, 32 μg/mL, Mtb H37Rv, MABA, mean of three experiments): 13%; inhibition at 64 µg/mL (Mtb H37Rv (ATCC 27294); Mycobacterium tuberculosis, 64 μg/mL, Mtb H37Rv, MABA, mean of three experiments): 24%; inhibition at 128 µg/mL (Mtb H37Rv (ATCC 27294); Mycobacterium tuberculosis, 128 μg/mL, Mtb H37Rv, MABA, mean of three experiments): 57%; MIC (Mtb H37Rv (ATCC 27294); Mycobacterium tuberculosis, read-out: MIC): > 128 µg/mL
NC(=O)c1cnccn1 [Pyrazinamide]	–	–	–	–	–	–	–	–	–	–	Hepatitis and Rash and Nausea	Adverse reactions, Common (≧1-5 per 100 patients) [1]: Nausea; Adverse reactions, Frequent (≧5 per 100 patients) [1]: Arthralgias
CC[C@@H](CO)NCCN[C@@H](CC)CO [Ethambutol]	–	–	–	–	–	–	–	–	–	–	Retrobulbar neuritis; also recorded: Periaxial ocular toxicity	–
CC(C)C(C)C1(C)CC1C(C)C1CCC2C3CC=C4CC(O)CCC4(C)C3CCC12C (centres unmarked) [Compound 8]	–	–	–	10	13	18	38	>128	>128 (n.d.) μg/mL	none	–	–
CC(C)CCC[C@@H](C)[C@H]1CC[C@H]2[C@@H]3C(C=O)=C4C[C@@H](O)CC[C@]4(C)[C@H]3CC[C@]12C [Compound 7]	10	34	51	96	99	99	99	15 (≈ 37.4 µM)	> 128 µg/mL	–	–	–
C=C(CC[C@@H](C)[C@H]1CC[C@H]2[C@@H]3CC=C4C[C@@H](O)CC[C@]4(C)[C@H]3CC[C@]12C)C(C)C [Compound 1]	–	–	–	33	43	40	97	120.1 (≈ 301 µM)	>128 (n.d.) μg/mL	none	–	activity against M. tuberculosis H37Rv (Mtb H37Rv (ATCC 27294)): only marginal activity
CCC(CCC(C)C1CCC2C3CC=C4CC(O)CCC4(C)C3CCC12C)C(C)C (centres unmarked) [Compound 4]	−1	8	7	32	31	48	45	>128	>128 (n.d.) μg/mL	none	–	–
CC(C)C(=O)CC[C@@H](C)[C@H]1CC[C@H]2[C@@H]3C(C=O)=C4C[C@@H](O)CC[C@]4(C)[C@H]3CC[C@]12C [Compound 3]	52	67	83	92	96	100	99	13.6 (≈ 32.8 µM)	43.8 µg/mL	–	–	–
CO[C@H]1/C=C/O[C@@]2(C)Oc3c(C)c(O)c4c(O)c(c(/C=N/N5CCN(C)CC5)c(O)c4c3C2=O)NC(=O)/C(C)=C\C=C\[C@H](C)[C@H](O)[C@@H](C)[C@@H](O)[C@@H](C)[C@H](OC(C)=O)[C@@H]1C [RMP, Rifampin]	–	–	–	–	–	–	–	–	–	–	Hepatitis; also recorded: Pruritus; also recorded: Flu syndrome; also recorded: Drug fever	Adverse reactions, Frequent (≧5 per 100 patients) [1]: Liver enzyme elevations; also recorded: Orange discoloration
[H]/N=C(/N)N[C@H]1[C@H](O)[C@@H](O)[C@H](O[C@@H]2O[C@@H](C)[C@](O)(C=O)[C@H]2O[C@@H]2O[C@@H](CO)[C@H](O)[C@@H](O)[C@@H]2NC)[C@@H](N/C(N)=N\[H])[C@@H]1O [Streptomycin]	–	–	–	–	–	–	–	–	–	–	Renal damage	Adverse reactions, Common (≧1-5 per 100 patients) [1]: Cochlear toxicity; also recorded: Hypersensitivity; Adverse reactions, Frequent (≧5 per 100 patients) [1]: Vestibular toxicity
NNC(=O)c1ccncc1 [Isoniazid]	–	–	–	–	–	–	–	–	–	–	Hepatitis; also recorded: Peripheral neuropathy; also recorded: Drug fever	Adverse reactions, Frequent (≧5 per 100 patients) [1]: Liver enzyme
CC(C)[C@@H](C)CC[C@@H](C)[C@H]1CC[C@H]2[C@@H]3CC=C4C[C@@H](O)CC[C@]4(C)[C@H]3CC[C@]12C [Compound 10]	15	14	23	21	31	41	58	>128	>128 (n.d.) μg/mL	none	–	–
CC(C)[C@@H](C)CC[C@@H](C)[C@H]1CC[C@H]2[C@@H]3C(C=O)=C4C[C@@H](O)CC[C@]4(C)[C@H]3CC[C@]12C [Compound 11]	39	94	97	99	99	100	99	3.9 (≈ 9.4 µM)	–	–	–	–
C=C(CC[C@@H](C)[C@H]1CC[C@H]2[C@@H]3C(C=O)=C4C[C@@H](O)CC[C@]4(C)[C@H]3CC[C@]12C)C(C)C [Compound 2]	52	69	91	105	99	99	99	7.8 (≈ 18.9 µM)	51 µg/mL	–	–	–

— patent publication US20110087037A1, “SYNTHESIS OF RING B ABEO-STEROLS AS NOVEL INHIBITORS OF MYCOBACTERIUM TUBERCULOSIS” (priority 2007, published 2011)
